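Five concentrations, 48 hours, 96-well plates. TGI marks complete inhibition of growth.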
Key:
Test in all cases: NCI-60 cell line screen, 48 h
OVCAR-8 ovarian = tested on: OVCAR-8 ovarian
NCI-H23 lung = tested on: NCI-H23 lung
UACC-257 melanoma = tested on: UACC-257 melanoma
SR leukemia = tested on: SR leukemia
PC-3 prostate = tested on: PC-3 prostate
SK-MEL-5 melanoma = tested on: SK-MEL-5 melanoma
HS 578T breast = tested on: HS 578T breast
SNB-19 CNS = tested on: SNB-19 CNS
A549 NSCLC = tested on: A549 NSCLC
CAKI-1 renal = tested on: CAKI-1 renal
SNB-75 CNS = tested on: SNB-75 CNS
RXF 393 renal = tested on: RXF 393 renal
K-562 leukemia = tested on: K-562 leukemia
T-47D breast = tested on: T-47D breast
M14 melanoma = tested on: M14 melanoma
OVCAR-3 ovarian = tested on: OVCAR-3 ovarian
MOLT-4 leukemia = tested on: MOLT-4 leukemia
SK-MEL-2 melanoma = tested on: SK-MEL-2 melanoma
BT-549 breast = tested on: BT-549 breast
MCF7 breast = tested on: MCF7 breast
TK-10 renal = tested on: TK-10 renal
OVCAR-5 ovarian = tested on: OVCAR-5 ovarian
HCC-2998 colon = tested on: HCC-2998 colon
NCI/ADR-RES ovarian = tested on: NCI/ADR-RES ovarian
LOX IMVI melanoma = tested on: LOX IMVI melanoma
SF-295 CNS = tested on: SF-295 CNS
SW-620 colon = tested on: SW-620 colon
MDA-MB-231 breast = tested on: MDA-MB-231 breast
ACHN renal = tested on: ACHN renal
IGROV1 ovarian = tested on: IGROV1 ovarian
OVCAR-4 ovarian = tested on: OVCAR-4 ovarian
NCI-H460 lung = tested on: NCI-H460 lung
MDA-MB-435 = tested on: MDA-MB-435
SF-539 CNS = tested on: SF-539 CNS
HL-60(TB) leukemia = tested on: HL-60(TB) leukemia
COLO 205 colon = tested on: COLO 205 colon
EKVX NSCLC = tested on: EKVX NSCLC
U251 CNS = tested on: U251 CNS
CCRF-CEM leukemia = tested on: CCRF-CEM leukemia
SK-MEL-28 melanoma = tested on: SK-MEL-28 melanoma
786-0 renal = tested on: 786-0 renal
SN12C renal = tested on: SN12C renal
HCT-116 colon = tested on: HCT-116 colon
SK-OV-3 ovarian = tested on: SK-OV-3 ovarian
MDA-N = tested on: MDA-N
NCI-H226 lung = tested on: NCI-H226 lung
HOP-92 NSCLC = tested on: HOP-92 NSCLC
NCI-H522 lung = tested on: NCI-H522 lung
SF-268 CNS = tested on: SF-268 CNS
DU-145 prostate = tested on: DU-145 prostate
UO-31 renal = tested on: UO-31 renal
A498 renal = tested on: A498 renal
MALME-3M melanoma = tested on: MALME-3M melanoma
RPMI-8226 leukemia = tested on: RPMI-8226 leukemia
UACC-62 melanoma = tested on: UACC-62 melanoma
HOP-62 NSCLC = tested on: HOP-62 NSCLC
HT29 colon = tested on: HT29 colon
KM12 colon = tested on: KM12 colon
HCT-15 colon = tested on: HCT-15 colon
M19-MEL melanoma = tested on: M19-MEL melanoma
SNB-78 CNS = tested on: SNB-78 CNS
LXFL 529 NSCLC = tested on: LXFL 529 NSCLC
DLD-1 colon = tested on: DLD-1 colon
DMS 273 small cell lung = tested on: DMS 273 small cell lung
DMS 114 small cell lung = tested on: DMS 114 small cell lung
HOP-18 NSCLC = tested on: HOP-18 NSCLC
KM20L2 colon = tested on: KM20L2 colon

SMILES: CN(CC1(CO)CCC1)c1cc(Cl)nc(N)n1
- TGI (OVCAR-8 ovarian): > 100 µM
- TGI (NCI-H23 lung): > 100 µM
- TGI (UACC-257 melanoma): > 100 µM
- TGI (SR leukemia): > 100 µM
- TGI (PC-3 prostate): > 100 µM
- TGI (SK-MEL-5 melanoma): > 100 µM
- TGI (HS 578T breast): > 100 µM
- TGI (SNB-19 CNS): > 100 µM
- TGI (A549 NSCLC): > 100 µM
- TGI (CAKI-1 renal): > 100 µM
- TGI (SNB-75 CNS): > 100 µM
- TGI (RXF 393 renal): > 100 µM
- TGI (K-562 leukemia): > 100 µM
- TGI (T-47D breast): > 100 µM
- TGI (M14 melanoma): > 100 µM
- TGI (OVCAR-3 ovarian): > 100 µM
- TGI (MOLT-4 leukemia): > 100 µM
- TGI (SK-MEL-2 melanoma): > 100 µM
- TGI (BT-549 breast): > 100 µM
- TGI (MCF7 breast): > 100 µM
- TGI (TK-10 renal): > 100 µM
- TGI (OVCAR-5 ovarian): > 100 µM
- TGI (HCC-2998 colon): > 100 µM
- TGI (NCI/ADR-RES ovarian): > 100 µM
- TGI (LOX IMVI melanoma): > 100 µM
- TGI (SF-295 CNS): > 100 µM
- TGI (SW-620 colon): > 100 µM
- TGI (MDA-MB-231 breast): > 100 µM
- TGI (ACHN renal): > 100 µM
- TGI (IGROV1 ovarian): > 100 µM
- TGI (OVCAR-4 ovarian): > 100 µM
- TGI (NCI-H460 lung): > 100 µM
- TGI (MDA-MB-435): > 100 µM
- TGI (SF-539 CNS): > 100 µM
- TGI (HL-60(TB) leukemia): > 100 µM
- TGI (COLO 205 colon): > 100 µM
- TGI (EKVX NSCLC): > 100 µM
- TGI (U251 CNS): > 100 µM
- TGI (CCRF-CEM leukemia): > 100 µM
- TGI (SK-MEL-28 melanoma): > 100 µM
- TGI (786-0 renal): > 100 µM
- TGI (SN12C renal): > 100 µM
- TGI (HCT-116 colon): > 100 µM
- TGI (SK-OV-3 ovarian): > 100 µM
- TGI (MDA-N): > 100 µM
- TGI (NCI-H226 lung): > 100 µM
- TGI (HOP-92 NSCLC): > 100 µM
- TGI (NCI-H522 lung): > 100 µM
- TGI (SF-268 CNS): > 100 µM
- TGI (DU-145 prostate): > 100 µM
- TGI (UO-31 renal): > 100 µM
- TGI (A498 renal): > 100 µM
- TGI (MALME-3M melanoma): > 100 µM
- TGI (RPMI-8226 leukemia): > 100 µM
- TGI (UACC-62 melanoma): > 100 µM
- TGI (HOP-62 NSCLC): > 100 µM
- TGI (HT29 colon): > 100 µM
- TGI (KM12 colon): > 100 µM
- TGI (HCT-15 colon): > 100 µM

SMILES: O=C(/C=C/c1ccccc1)c1cc(Br)ccc1O
- TGI (OVCAR-8 ovarian): 30.4 µM
- TGI (NCI-H23 lung): 31.4 µM
- TGI (UACC-257 melanoma): 27.9 µM
- TGI (SR leukemia): 12.3 µM
- TGI (PC-3 prostate): 33.7 µM
- TGI (SK-MEL-5 melanoma): 34.6 µM
- TGI (HS 578T breast): 59.3 µM
- TGI (SNB-19 CNS): 35.8 µM
- TGI (A549 NSCLC): 52.2 µM
- TGI (CAKI-1 renal): 31.1 µM
- TGI (SNB-75 CNS): 28.9 µM
- TGI (RXF 393 renal): 37.4 µM
- TGI (K-562 leukemia): 43.1 µM
- TGI (T-47D breast): 25.5 µM
- TGI (M14 melanoma): 52.9 µM
- TGI (OVCAR-3 ovarian): 43 µM
- TGI (MOLT-4 leukemia): 36.3 µM
- TGI (SK-MEL-2 melanoma): 40.6 µM
- TGI (BT-549 breast): 33 µM
- TGI (MCF7 breast): 31.5 µM
- TGI (TK-10 renal): 31.6 µM
- TGI (OVCAR-5 ovarian): 46.3 µM
- TGI (HCC-2998 colon): 32.2 µM
- TGI (NCI/ADR-RES ovarian): 34.9 µM
- TGI (LOX IMVI melanoma): 27.5 µM
- TGI (SF-295 CNS): 31.5 µM
- TGI (SW-620 colon): 46.8 µM
- TGI (MDA-MB-231 breast): 42.5 µM
- TGI (ACHN renal): 28.7 µM
- TGI (IGROV1 ovarian): 25 µM
- TGI (OVCAR-4 ovarian): 30.3 µM
- TGI (NCI-H460 lung): 33.7 µM
- TGI (MDA-MB-435): 32.6 µM
- TGI (HL-60(TB) leukemia): 25.7 µM
- TGI (COLO 205 colon): 33.3 µM
- TGI (EKVX NSCLC): 27.6 µM
- TGI (U251 CNS): 29.9 µM
- TGI (CCRF-CEM leukemia): 33.9 µM
- TGI (SK-MEL-28 melanoma): 31.5 µM
- TGI (786-0 renal): 28.8 µM
- TGI (SN12C renal): 29.7 µM
- TGI (HCT-116 colon): 32.3 µM
- TGI (SK-OV-3 ovarian): 38.1 µM
- TGI (MDA-N): 33.3 µM
- TGI (NCI-H226 lung): 31.7 µM
- TGI (HOP-92 NSCLC): 18.3 µM
- TGI (NCI-H522 lung): 28.4 µM
- TGI (SF-268 CNS): 34 µM
- TGI (DU-145 prostate): 28.4 µM
- TGI (UO-31 renal): 22.9 µM
- TGI (A498 renal): 26.8 µM
- TGI (RPMI-8226 leukemia): 34 µM
- TGI (UACC-62 melanoma): 27.4 µM
- TGI (HOP-62 NSCLC): 46.3 µM
- TGI (HT29 colon): 31 µM
- TGI (KM12 colon): 25.7 µM
- TGI (HCT-15 colon): 34.9 µM

SMILES: Cn1cnc(CCc2ccccc2)n1
- TGI (OVCAR-8 ovarian): > 100 µM
- TGI (NCI-H23 lung): > 100 µM
- TGI (UACC-257 melanoma): > 100 µM
- TGI (SR leukemia): > 100 µM
- TGI (SK-MEL-5 melanoma): > 100 µM
- TGI (A549 NSCLC): > 100 µM
- TGI (CAKI-1 renal): > 100 µM
- TGI (SNB-75 CNS): > 100 µM
- TGI (M19-MEL melanoma): > 100 µM
- TGI (RXF 393 renal): > 100 µM
- TGI (K-562 leukemia): > 100 µM
- TGI (M14 melanoma): > 100 µM
- TGI (OVCAR-3 ovarian): > 100 µM
- TGI (MOLT-4 leukemia): > 100 µM
- TGI (SK-MEL-2 melanoma): > 100 µM
- TGI (TK-10 renal): > 100 µM
- TGI (OVCAR-5 ovarian): > 100 µM
- TGI (LOX IMVI melanoma): > 100 µM
- TGI (SF-295 CNS): > 100 µM
- TGI (SNB-78 CNS): > 100 µM
- TGI (LXFL 529 NSCLC): > 100 µM
- TGI (SW-620 colon): > 100 µM
- TGI (ACHN renal): > 100 µM
- TGI (DLD-1 colon): > 100 µM
- TGI (IGROV1 ovarian): > 100 µM
- TGI (OVCAR-4 ovarian): > 100 µM
- TGI (NCI-H460 lung): > 100 µM
- TGI (SF-539 CNS): > 100 µM
- TGI (HL-60(TB) leukemia): > 100 µM
- TGI (COLO 205 colon): > 100 µM
- TGI (DMS 273 small cell lung): > 100 µM
- TGI (U251 CNS): > 100 µM
- TGI (CCRF-CEM leukemia): > 100 µM
- TGI (SK-MEL-28 melanoma): > 100 µM
- TGI (DMS 114 small cell lung): > 100 µM
- TGI (786-0 renal): > 100 µM
- TGI (HOP-18 NSCLC): > 100 µM
- TGI (SN12C renal): > 100 µM
- TGI (HCT-116 colon): > 100 µM
- TGI (SK-OV-3 ovarian): > 100 µM
- TGI (NCI-H226 lung): > 100 µM
- TGI (HOP-92 NSCLC): > 100 µM
- TGI (NCI-H522 lung): > 100 µM
- TGI (SF-268 CNS): > 100 µM
- TGI (UO-31 renal): > 100 µM
- TGI (A498 renal): > 100 µM
- TGI (MALME-3M melanoma): > 100 µM
- TGI (RPMI-8226 leukemia): > 100 µM
- TGI (UACC-62 melanoma): > 100 µM
- TGI (HOP-62 NSCLC): > 100 µM
- TGI (KM20L2 colon): > 100 µM
- TGI (HT29 colon): > 100 µM
- TGI (KM12 colon): > 100 µM
- TGI (HCT-15 colon): > 100 µM

— PubChem BioAssay (NCI)
